Data on 1 compound can be found in US20050255071A1, “Preparation having improved therapeutic breadth comprising nucleotide synthesis inhibitors” (Aventis Pharma Deutschland GmbH, priority 1998, published 2005).

Read-outs that look alike come from different tables or passages of the source.

The test system of series [1] is Adjuvant-Induced Arthritis. Type of series: in vivo, rats. Here is the method: Adjuvant-Induced Arthritis, Modification According to Perper (Proc. Soc. Exp. Biol. Med. 137, 506 (1971)).
(§1) The experimental animals used were male rats of a Lewis strain (Moellegard, Denmark) having a body weight of from 160 to 210 g. On the 1st day, the animals were injected subcutaneously, into the tail root, with complete Freund's adjuvant containing a Mycobacterium butyricum suspension in heavy paraffin oil (Difco, 6 mg/kg in paraffin oil, Merck). The compounds N-(4-trifluoromethylphenyl)-2-cyano-3-hydroxycrotonamide and colestyramine were suspended in carboxymethylcellulose (1% in water), and administered orally. The compounds were administered once daily from the 1st to the 17th day of the experiment; the paw volume and arthritis index were then determined on the 18th day.
The severity of the disorder was determined by measuring the paw volume of both hind paws. The measurement was carried out by means of the water displacement method using a 2060 Plethys monitor (Rhema-Labortechnik, Hofheim, Germany). The arthritis index was furthermore determined in the 18th day after injection.
Determination of the arthritis index was scored as follows:
On the first day, animals of an “arthritis control” control group were given a subcutaneous injection, into the tail root, with complete Freund's adjuvant but were given only the solvent (i.e., 1% cabrboxymethylcellulose in water). Six animals in each case were used per dose and in the control group. Untreated animals were employed as a further “healthy control” control group. The activity criteria used were the reduction of the increase in the paw volume and the decrease in the arthritis index, compared with the untreated control group, and the weight of the animals, in each case in percent and based on the arthritis control.
In the following table, N-(4-trifluoromethylphenyl)-2-cyano-3-hydroxycrotonamide is compound 1. Colestyramine was administered 4 hours later than compound 1.

Series [2] in a line: GOT, GPT, RBC, HGB, HCT in adjuvant-arthritis rats (Example 2). Conditions: rat, in vivo, po, 25 mg/kg. Here is the method: as §1
The experimental conditions were analogous to Example 1. The actions of compound 1 and colestyramine on the amount of red blood corpuscles (RBC), hemoglobin content (HGB), hematocrit (HCT), amount of glutamate oxlacetate transaminase (GOT), and glutamate pyruvate transaminase (GPT) were determined. Colestyramine was administered 4 hours later than compound 1.

Series [3] in a line: Alkaline phosphatase and amylase in adjuvant-arthritis rats (Example 3). Conditions: rat, in vivo, po, 25 mg/kg. Here is the method:
as §1
The experimental conditions were analogous to Example 1. The actions of compound 1 and colestyramine on the amount on the of alkaline phosphatase (AP) and amylase were determined. Colestyramine was administered 4 hours later than compound 1.

Series [4] in a line: Blood level and duration of action of compound 1 after time-displaced colestyramine. Conditions: with time-displaced administration of colestyramine (2 hours or 4 hours after compound 1). It is filed as in vivo. An excerpt: The preparation according to the invention can also include compositions or combination packs in which the constituents are placed next to one another and can therefore be used simultaneously, separately, or sequentially on one and the same human or animal body. The sequential administration of a compound of formula (I) and/or (II) before the administration of a compound, which essentially prevents the enterohepatic circulation of a compound of formula (I) and (II), is preferred. To this end, for example, N-(4-trifluoromethylphenyl)-2-cyano-3-hydroxycrotonamide (called compound 1 in the following) is administered first. Colestyramine, which essentially prevents the enterohepatic circulation of compound 1, is administered with a displacement in time, i.e., 2 hours or 4 hours after the administration of compound 1. Because of the time-displaced administration of compound 1 relative to colestyramine, compound 1 is initially absorbed unhindered from the digestive tract. After the administration of colestyramine, which is not absorbed systemically, compound 1 excreted via the bowel is bound to colestyramine, and cannot therefore be reabsorbed again; as a result, an interruption to the enterohepatic circulation is brought about.

Where [5] appears, read: Example 1, 2.5 mg/kg of live weight oral once daily day 1-17, day 18.
Where [6] appears, read: Example 1, 7.5 mg/kg of live weight oral once daily day 1-17, day 18.
The mark [7] stands for this setting: Example 1, 25 mg/kg of live weight oral once daily day 1-17, day 18.
[8] abbreviates: Example 2, 25 mg/kg of live weight oral.
Where [9] appears, read: Example 3, 25 mg/kg of live weight oral.

Consider `C/C(O)=C(\C#N)C(=O)Nc1ccc(C(F)(F)F)cc1` [Compound 1, N-(4-trifluoromethylphenyl)-2-cyano-3-hydroxycrotonamide], for which, in series [1] (25 mg/kg/day of compound 1, with administration of colestyramine), the “desired actions on the immune system” value is recorded as “retention”. For the same compound, in series [1] (setting [5]), the Arthritis index is reported as −77% and the “Paw Volume” value is −63%. In series [1] (setting [6]), the Arthritis index was −92% and the “Paw Volume” value is −83%. In series [1] (setting [7]), the Arthritis index is reported as −100% and the “Paw Volume” value is −92%. In addition, in series [1] (setting [8]), the Arthritis index is −100% and the “Paw Volume” value was −92%. In series [1] (setting [9]), the “Arthritis index” value is −100% and the Paw Volume is −110%. Further, in series [1] (approximately 2.5 mg/kg/day of compound 1, with administration of colestyramine), the “activity in adjuvant arthritis” value was “not reduced”. Further, in series [2], the GOT was found to be 85.3 U/I, the GPT was determined as 25.1 U/I, the HCT is 18.7% and the HGB is 6.1 g/dL. In addition, the RBC in series [2] was 3.8 *10^6/mm^3. Also, in series [3], the AP is 114.8 U/I and the Amylase worked out at 1306.5 U/I. In addition, in series [4], the “blood level of compound 1” value was “drastically reduced” and the duration of action result is given as “drastically reduced”.
